Assay results reported in PubChem BioAssay AID1963961 (Molecular Pharmacology Branch, DTP, NCI, 2024).

System: K98450-129-R-PDC multicell spheroids, viability
Experiment: Anticancer human tumor K98450-129-R-PDC patient-derived colon adenocarcinoma cell line growth inhibition [PI3K]
Settings: for IC50: curve of first compound; for viability, T/C: stronger effect = lower value
Procedure, shortened: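 High-throughput combination screen: PI3K inhibitors crossed with targeted small molecules on complex spheroids of tumor cells, HUVEC and MSCs at 37 degrees C, 5% CO2. Top concentration was at or near clinical Cmax (otherwise 10 microM), with half-log decrements.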

[1] = second compound 0.0316 µM, first compound 0.0316 µM
[2] = second compound 0.0316 µM, first compound 0.1 µM
[3] = second compound 0.0316 µM, first compound 0.316 µM
[4] = second compound 0.0316 µM, first compound 1 µM
[5] = second compound 0.0316 µM, first compound 3.16 µM
[6] = second compound 0.0316 µM, first compound 10 µM
[7] = second compound 0.1 µM, first compound 0.0316 µM
[8] = second compound 0.1 µM, first compound 0.1 µM
[9] = second compound 0.1 µM, first compound 0.316 µM
[10] = second compound 0.1 µM, first compound 1 µM
[11] = second compound 0.1 µM, first compound 3.16 µM
[12] = second compound 0.1 µM, first compound 10 µM
[13] = second compound 0.316 µM, first compound 0.0316 µM
[14] = second compound 0.316 µM, first compound 0.1 µM
[15] = second compound 0.316 µM, first compound 0.316 µM
[16] = second compound 0.316 µM, first compound 1 µM
[17] = second compound 0.316 µM, first compound 3.16 µM
[18] = second compound 0.316 µM, first compound 10 µM
[19] = second compound 1 µM, first compound 0.0316 µM
[20] = second compound 1 µM, first compound 0.1 µM
[21] = second compound 1 µM, first compound 0.316 µM
[22] = second compound 1 µM, first compound 1 µM
[23] = second compound 1 µM, first compound 3.16 µM
[24] = second compound 1 µM, first compound 10 µM
[25] = second compound 3.16 µM, first compound 0.0316 µM
[26] = second compound 3.16 µM, first compound 0.1 µM
[27] = second compound 3.16 µM, first compound 0.316 µM
[28] = second compound 3.16 µM, first compound 1 µM
[29] = second compound 3.16 µM, first compound 3.16 µM
[30] = second compound 3.16 µM, first compound 10 µM
[31] = second compound 10 µM, first compound 0.0316 µM
[32] = second compound 10 µM, first compound 0.1 µM
[33] = second compound 10 µM, first compound 0.316 µM
[34] = second compound 10 µM, first compound 1 µM
[35] = second compound 10 µM, first compound 3.16 µM
[36] = second compound 10 µM, first compound 10 µM
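Also: spheroids exposed to agents for seven days before read-out.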

Q: How did the IC50 (second compound 0.0316 µM) turn out when `CC1(C)CCC(CN2CCN(c3ccc(C(=O)NS(=O)(=O)c4ccc(NCC5CCOCC5)c([N+](=O)[O-])c4)c(Oc4cnc5[nH]ccc5c4)c3)CC2)=C(c2ccc(Cl)cc2)C1` + Cc1nc(NC(=O)N2CCCC2C(N)=O)sc1-c1ccnc(C(C)(C)C(F)(F)F)c1 was run?
A: 6.03 µM

Q: What about the IC50 (second compound 0.1 µM) of the same compound?
A: 5.71 µM

Q: What about the IC50 (second compound 0.316 µM) of the same compound?
A: 5.78 µM

Q: And the IC50 (second compound 1 µM)?
A: 5.4 µM

Q: And the IC50 (second compound 3.16 µM)?
A: 5.16 µM

Q: What about the IC50 (second compound 10 µM) of the same compound?
A: 4.66 µM

Q: What about the viability, T/C [1] of the same compound?
A: 105%

Q: And the viability, T/C [2]?
A: 101%

Q: And the viability, T/C [3]?
A: 106%

Q: What about the viability, T/C [4] of the same compound?
A: 100%

Q: What about the viability, T/C [5] of the same compound?
A: 98.3%

Q: And the viability, T/C [6]?
A: 12.2%

Q: What about the viability, T/C [7] of the same compound?
A: 104%

Q: What about the viability, T/C [8] of the same compound?
A: 96.9%

Q: And the viability, T/C [9]?
A: 104%

Q: What about the viability, T/C [10] of the same compound?
A: 95%

Q: And the viability, T/C [11]?
A: 92.5%

Q: And the viability, T/C [12]?
A: 9.67%

Q: And the viability, T/C [13]?
A: 99.5%

Q: And the viability, T/C [14]?
A: 95.5%

Q: And the viability, T/C [15]?
A: 98.6%

Q: And the viability, T/C [16]?
A: 92.4%

Q: And the viability, T/C [17]?
A: 93.5%

Q: And the viability, T/C [18]?
A: 10.5%

Q: And the viability, T/C [19]?
A: 88.4%

Q: And the viability, T/C [20]?
A: 94.4%

Q: What about the viability, T/C [21] of the same compound?
A: 94.9%

Q: And the viability, T/C [22]?
A: 91%

Q: And the viability, T/C [23]?
A: 88.4%

Q: And the viability, T/C [24]?
A: 5.86%

Q: What about the viability, T/C [25] of the same compound?
A: 80.6%

Q: What about the viability, T/C [26] of the same compound?
A: 87.4%

Q: What about the viability, T/C [27] of the same compound?
A: 86%

Q: What about the viability, T/C [28] of the same compound?
A: 84.3%

Q: What about the viability, T/C [29] of the same compound?
A: 83%

Q: And the viability, T/C [30]?
A: 5.29%

Q: And the viability, T/C [31]?
A: 70%

Q: What about the viability, T/C [32] of the same compound?
A: 73.9%

Q: And the viability, T/C [33]?
A: 72.9%

Q: What about the viability, T/C [34] of the same compound?
A: 68.5%

Q: What about the viability, T/C [35] of the same compound?
A: 77%

Q: What about the viability, T/C [36] of the same compound?
A: 5.54%

Q: For `CCCS(=O)(=O)Nc1ccc(F)c(C(=O)c2c[nH]c3ncc(-c4ccc(Cl)cc4)cc23)c1F` + Cc1nc(NC(=O)N2CCCC2C(N)=O)sc1-c1ccnc(C(C)(C)C(F)(F)F)c1, which IC50 (second compound 0.0316 µM) is on record?
A: 6.04 µM

Q: And the IC50 (second compound 0.1 µM)?
A: 6 µM

Q: And the IC50 (second compound 0.316 µM)?
A: 5.81 µM

Q: And the IC50 (second compound 1 µM)?
A: 5.69 µM

Q: What about the IC50 (second compound 3.16 µM) of the same compound?
A: 5.33 µM

Q: What about the IC50 (second compound 10 µM) of the same compound?
A: 4.79 µM

Q: What about the viability, T/C [1] of the same compound?
A: 106%

Q: And the viability, T/C [2]?
A: 98.7%

Q: What about the viability, T/C [3] of the same compound?
A: 101%

Q: What about the viability, T/C [4] of the same compound?
A: 101%

Q: What about the viability, T/C [5] of the same compound?
A: 124%

Q: And the viability, T/C [6]?
A: 6.29%

Q: What about the viability, T/C [7] of the same compound?
A: 108%

Q: And the viability, T/C [8]?
A: 96.9%

Q: And the viability, T/C [9]?
A: 105%

Q: And the viability, T/C [10]?
A: 103%

Q: And the viability, T/C [11]?
A: 118%

Q: What about the viability, T/C [12] of the same compound?
A: 5.28%

Q: And the viability, T/C [13]?
A: 95.8%

Q: And the viability, T/C [14]?
A: 95.8%

Q: And the viability, T/C [15]?
A: 94.1%

Q: What about the viability, T/C [16] of the same compound?
A: 92.8%

Q: What about the viability, T/C [17] of the same compound?
A: 120%

Q: What about the viability, T/C [18] of the same compound?
A: 5.66%

Q: And the viability, T/C [19]?
A: 89.2%

Q: And the viability, T/C [20]?
A: 90.9%

Q: And the viability, T/C [21]?
A: 94.3%

Q: And the viability, T/C [22]?
A: 92.9%

Q: What about the viability, T/C [23] of the same compound?
A: 107%

Q: What about the viability, T/C [24] of the same compound?
A: 6.99%

Q: And the viability, T/C [25]?
A: 84%

Q: What about the viability, T/C [26] of the same compound?
A: 85.8%

Q: What about the viability, T/C [27] of the same compound?
A: 84.5%

Q: What about the viability, T/C [28] of the same compound?
A: 89%

Q: And the viability, T/C [29]?
A: 88.8%

Q: And the viability, T/C [30]?
A: 6.1%

Q: And the viability, T/C [31]?
A: 70.5%

Q: What about the viability, T/C [32] of the same compound?
A: 72.8%

Q: What about the viability, T/C [33] of the same compound?
A: 78%

Q: And the viability, T/C [34]?
A: 71.1%

Q: And the viability, T/C [35]?
A: 76.9%

Q: And the viability, T/C [36]?
A: 7.67%

Q: For `CNC(=O)c1ccc(N2C(=S)N(c3ccc(C#N)c(C(F)(F)F)c3)C(=O)C2(C)C)cc1F` + Cc1nc(NC(=O)N2CCCC2C(N)=O)sc1-c1ccnc(C(C)(C)C(F)(F)F)c1, which IC50 (second compound 0.0316 µM) is on record?
A: > 10 µM

Q: What about the IC50 (second compound 0.1 µM) of the same compound?
A: > 10 µM

Q: And the IC50 (second compound 0.316 µM)?
A: > 10 µM

Q: What about the IC50 (second compound 1 µM) of the same compound?
A: > 10 µM

Q: And the IC50 (second compound 3.16 µM)?
A: > 10 µM

Q: What about the IC50 (second compound 10 µM) of the same compound?
A: > 10 µM

Q: What about the viability, T/C [1] of the same compound?
A: 108%

Q: What about the viability, T/C [2] of the same compound?
A: 93%

Q: And the viability, T/C [3]?
A: 106%

Q: And the viability, T/C [4]?
A: 94.2%

Q: What about the viability, T/C [5] of the same compound?
A: 109%

Q: And the viability, T/C [6]?
A: 111%

Q: What about the viability, T/C [7] of the same compound?
A: 111%

Q: What about the viability, T/C [8] of the same compound?
A: 92.2%

Q: And the viability, T/C [9]?
A: 102%

Q: And the viability, T/C [10]?
A: 89.2%

Q: What about the viability, T/C [11] of the same compound?
A: 104%

Q: What about the viability, T/C [12] of the same compound?
A: 109%

Q: What about the viability, T/C [13] of the same compound?
A: 97%

Q: And the viability, T/C [14]?
A: 96.2%

Q: And the viability, T/C [15]?
A: 94.8%

Q: What about the viability, T/C [16] of the same compound?
A: 97.3%

Q: What about the viability, T/C [17] of the same compound?
A: 105%

Q: What about the viability, T/C [18] of the same compound?
A: 109%

Q: And the viability, T/C [19]?
A: 90.5%

Q: And the viability, T/C [20]?
A: 91.2%

Q: And the viability, T/C [21]?
A: 87.5%

Q: And the viability, T/C [22]?
A: 91.4%

Q: And the viability, T/C [23]?
A: 101%

Q: And the viability, T/C [24]?
A: 99%

Q: And the viability, T/C [25]?
A: 81.1%

Q: And the viability, T/C [26]?
A: 88.2%

Q: What about the viability, T/C [27] of the same compound?
A: 87.1%

Q: And the viability, T/C [28]?
A: 81.8%

Q: What about the viability, T/C [29] of the same compound?
A: 92%

Q: And the viability, T/C [30]?
A: 83.7%

Q: What about the viability, T/C [31] of the same compound?
A: 70.2%

Q: And the viability, T/C [32]?
A: 69.2%

Q: And the viability, T/C [33]?
A: 74.7%

Q: What about the viability, T/C [34] of the same compound?
A: 71.1%

Q: What about the viability, T/C [35] of the same compound?
A: 79%

Q: What about the viability, T/C [36] of the same compound?
A: 73.5%
